Source: PubChem BioAssay (NCI)
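GI50 marks 50% less growth. Definition used: TGI = concentration required for complete inhibition of growth.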

Experiments:
Experiment in all cases: inhibition of tumour cell growth, NCI panel, 384-well format
HOP-92 NSCLC = test system: HOP-92 NSCLC
TK-10 renal = test system: TK-10 renal
T-47D breast = test system: T-47D breast
HS 578T breast = test system: HS 578T breast
SF-539 CNS = test system: SF-539 CNS
RXF 393 renal = test system: RXF 393 renal
SNB-75 CNS = test system: SNB-75 CNS
PC-3 prostate = test system: PC-3 prostate
OVCAR-4 ovarian = test system: OVCAR-4 ovarian
SR leukemia = test system: SR leukemia
MOLT-4 leukemia = test system: MOLT-4 leukemia
OVCAR-8 ovarian = test system: OVCAR-8 ovarian
UACC-62 melanoma = test system: UACC-62 melanoma
SF-295 CNS = test system: SF-295 CNS
SK-MEL-28 melanoma = test system: SK-MEL-28 melanoma
M14 melanoma = test system: M14 melanoma
HCT-116 colon = test system: HCT-116 colon
MCF7 breast = test system: MCF7 breast
KM12 colon = test system: KM12 colon
CAKI-1 renal = test system: CAKI-1 renal
NCI-H460 NSCLC = test system: NCI-H460 NSCLC
786-0 renal = test system: 786-0 renal
EKVX NSCLC = test system: EKVX NSCLC
NCI-H23 lung = test system: NCI-H23 lung
HT29 colon = test system: HT29 colon
HL-60(TB) leukemia = test system: HL-60(TB) leukemia
SN12C renal = test system: SN12C renal
MALME-3M melanoma = test system: MALME-3M melanoma
SW-620 colon = test system: SW-620 colon
BT-549 breast = test system: BT-549 breast
MDA-MB-468 breast = test system: MDA-MB-468 breast
NCI-H522 lung = test system: NCI-H522 lung
COLO 205 colon = test system: COLO 205 colon
IGROV1 ovarian = test system: IGROV1 ovarian
NCI-H226 lung = test system: NCI-H226 lung
NCI-H322M lung = test system: NCI-H322M lung
UACC-257 melanoma = test system: UACC-257 melanoma
SK-MEL-2 melanoma = test system: SK-MEL-2 melanoma
OVCAR-3 ovarian = test system: OVCAR-3 ovarian
A498 renal = test system: A498 renal
HCT-15 colon = test system: HCT-15 colon
HOP-62 NSCLC = test system: HOP-62 NSCLC
SK-OV-3 ovarian = test system: SK-OV-3 ovarian
A549 NSCLC = test system: A549 NSCLC
SK-MEL-5 melanoma = test system: SK-MEL-5 melanoma
K-562 leukemia = test system: K-562 leukemia
ACHN renal = test system: ACHN renal
MDA-MB-231 breast = test system: MDA-MB-231 breast
DU-145 prostate = test system: DU-145 prostate
MDA-MB-435 melanoma = test system: MDA-MB-435 melanoma
OVCAR-5 ovarian = test system: OVCAR-5 ovarian
SNB-19 CNS = test system: SNB-19 CNS
SF-268 CNS = test system: SF-268 CNS
UO-31 renal = test system: UO-31 renal

Work on `CN(C)C1CCN(C(=O)c2ccc(NC(=O)Nc3ccc(-c4nc(N5CCOCC5)nc(N5CCOCC5)n4)cc3)cc2)CC1` yielded a GI50 (HOP-92 NSCLC) of 21.1 nM, a TGI (HOP-92 NSCLC) of 118 nM and a GI50 (TK-10 renal) of 348 nM. The TGI (TK-10 renal) was 1690 nM, the GI50 (T-47D breast) was under 10 nM and the TGI (T-47D breast) was 11.4 nM. The GI50 (HS 578T breast) was under 10 nM, the TGI (HS 578T breast) was 45.5 nM and the GI50 (SF-539 CNS) was under 10 nM. For the same compound, the TGI (SF-539 CNS) was 113 nM, the GI50 (RXF 393 renal) was 25.2 nM and the TGI (RXF 393 renal) was 203 nM. The GI50 (SNB-75 CNS) was under 10 nM, the TGI (SNB-75 CNS) was 33.9 nM and the GI50 (PC-3 prostate) was 18.8 nM. The TGI (PC-3 prostate) was 765 nM, the GI50 (OVCAR-4 ovarian) was under 10 nM and the TGI (OVCAR-4 ovarian) was 50.9 nM. For the same compound, the GI50 (SR leukemia) was under 10 nM, the TGI (SR leukemia) was 26.4 nM and the GI50 (MOLT-4 leukemia) was 10.7 nM. For the same compound, the TGI (MOLT-4 leukemia) was 45.4 nM, the GI50 (OVCAR-8 ovarian) was 139 nM and the TGI (OVCAR-8 ovarian) was 2940 nM. It also gave a GI50 (UACC-62 melanoma) of 24.9 nM, a TGI (UACC-62 melanoma) of 142 nM and a GI50 (SF-295 CNS) of 174 nM. The TGI (SF-295 CNS) was 607 nM, the GI50 (SK-MEL-28 melanoma) was 42.8 nM and the TGI (SK-MEL-28 melanoma) was 1150 nM. The GI50 (M14 melanoma) was 128 nM, the TGI (M14 melanoma) was 5250 nM and the GI50 (HCT-116 colon) was 31.9 nM. The TGI (HCT-116 colon) was 1970 nM, the GI50 (MCF7 breast) was under 10 nM and the TGI (MCF7 breast) was 176 nM. The GI50 (KM12 colon) was 27.7 nM, the TGI (KM12 colon) was 10300 nM and the GI50 (CAKI-1 renal) was 278 nM. The TGI (CAKI-1 renal) was 1230 nM, the GI50 (NCI-H460 NSCLC) was 18.6 nM and the TGI (NCI-H460 NSCLC) was 1340 nM. It also gave a GI50 ([…]-0 renal) of 290 nM, a TGI (786-0 renal) of 2030 nM and a GI50 (EKVX NSCLC) of 40.6 nM. The TGI (EKVX NSCLC) was 828 nM, the GI50 (NCI-H23 lung) was 50.8 nM and the TGI (NCI-H23 lung) was 1120 nM. The GI50 (HT29 colon) was 28.6 nM, the TGI (HT29 colon) was 1470 nM and the GI50 (HL-60(TB) leukemia) was 55.4 nM. For the same compound, the TGI (HL-60(TB) leukemia) was 227 nM, the GI50 (SN12C renal) was 30.3 nM and the TGI (SN12C renal) was 12400 nM. It also gave a GI50 (MALME-3M melanoma) of 18.9 nM, a TGI (MALME-3M melanoma) of 73.5 nM and a GI50 (SW-620 colon) of 75.2 nM. It also gave a TGI (SW-620 colon) of 10200 nM, a GI50 (BT-549 breast) of 17.6 nM and a TGI (BT-549 breast) of 130 nM. The GI50 (MDA-MB-468 breast) was under 10 nM, the TGI (MDA-MB-468 breast) was 22.4 nM and the GI50 (NCI-H522 lung) was 24.4 nM. The TGI (NCI-H522 lung) was 1610 nM, the GI50 (COLO 205 colon) was 26.7 nM and the TGI (COLO 205 colon) was 137 nM. For the same compound, the GI50 (IGROV1 ovarian) was under 10 nM, the TGI (IGROV1 ovarian) was 43.1 nM and the GI50 (NCI-H226 lung) was 86.5 nM. For the same compound, the TGI (NCI-H226 lung) was 441 nM, the GI50 (NCI-H322M lung) was 19.5 nM and the TGI (NCI-H322M lung) was 149 nM. It also gave a GI50 (UACC-257 melanoma) of 51.9 nM, a TGI (UACC-257 melanoma) of 338 nM and a GI50 (SK-MEL-2 melanoma) of 37.3 nM. The TGI (SK-MEL-2 melanoma) was 268 nM, the GI50 (OVCAR-3 ovarian) was 12.1 nM and the TGI (OVCAR-3 ovarian) was 323 nM. The GI50 (A498 renal) was 188 nM, the TGI (A498 renal) was 943 nM and the GI50 (HCT-15 colon) was 3260 nM. The TGI (HCT-15 colon) was over 100000 nM, the GI50 (HOP-62 NSCLC) was 52.1 nM and the TGI (HOP-62 NSCLC) was 351 nM. It also gave a GI50 (SK-OV-3 ovarian) of under 10 nM, a TGI (SK-OV-3 ovarian) of 39.8 nM and a GI50 (A549 NSCLC) of 22.3 nM. The TGI (A549 NSCLC) was 546 nM, the GI50 (SK-MEL-5 melanoma) was 125 nM and the TGI (SK-MEL-5 melanoma) was 390 nM. The GI50 (K-562 leukemia) was 42.2 nM, the TGI (K-562 leukemia) was 1820 nM and the GI50 (ACHN renal) was 479 nM. The TGI (ACHN renal) was 5560 nM, the GI50 (MDA-MB-231 breast) was 11.7 nM and the TGI (MDA-MB-231 breast) was 15000 nM. It also gave a GI50 (DU-145 prostate) of 15 nM, a TGI (DU-145 prostate) of 1580 nM and a GI50 (MDA-MB-435 melanoma) of 23.5 nM. It also gave a TGI (MDA-MB-435 melanoma) of 352 nM, a GI50 (OVCAR-5 ovarian) of 50.9 nM and a TGI (OVCAR-5 ovarian) of 12100 nM. For the same compound, the GI50 (SNB-19 CNS) was 383 nM, the TGI (SNB-19 CNS) was 14400 nM and the GI50 (SF-268 CNS) was 36.3 nM. It also gave a TGI (SF-268 CNS) of 1760 nM, a GI50 (UO-31 renal) of 2220 nM and a TGI (UO-31 renal) of 7290 nM.
